Source: US20030114529A1, “Hydroxamic acid thrombospondin peptide analog that inhibits aggrecanase activity” (priority 2001, published 2003)

Tests used:
[1] = system: Pig articular cartilage explants; experiment: IL-1 induced aggrecan degradation in pig articular cartilage explants (GAG release, DMMB assay); assay type: cell-based; conditions: 72 hours; for IC50: Sus scrofa, pig explants, IL-1α, inhibitor 0.1 to 10 μM
Description: (§1) The same compounds were tested for the ability to block aggrecan cleavage in an in vitro model of cartilage degradation. Pig articular cartilage explants were cultured for 72 hours in the presence of IL-α, with or without one of the inhibitors at a concentration range og 0.1 to 10 μM. Culture media were assessed for the level of glycosaminoglycan chains (GAG) by dimethyl methylene blue (DMMB) assay, as a measure of aggrecan breakdown and IC50 values were calculated (Table 1). […] Therefore, we tested JWD40 for its ability to prevent aggrecan degradation in osteoarthritic (OA) cartilage. Human OA cartilage explants were cultured with or without JWD40, 0.1 to 10 μM. After 48 hours, media were analyzed for the presence of aggrecan products generated by cleavage by aggrecanase, containing the new N-terminus ^374ARGSV.
Articular cartilage was dissected from the knees of young pigs. Cartilage was allowed to equilibrate for 3 days in DMEM supplemented with 10% FCS, penicillin (100 U/ml) and streptomycin (100 μg/ml). Subsequently, cartilage was cut into 3×3 mm explants, weighing approximately 10-20 mg each, and incubated in 96-well plates for 72 hours with either control medium (serum-free DMEM),ml), IL-1α (100 ng/ml), or IL-1α (100 ng/ml) plus a series of hydroxamic acids at a concentration range of 0.1 μM to 10 μM. At the end of the culture period, glycosaminoglycan (GAG) levels in the culture media were determined by dimethylmethylene blue (DMMB) assay, as described by Farndale et al (13).

gelatinase MMP-2 = target: T1, gelatinase MMP-2 (Homo sapiens, UniProt P08253); experiment: Inhibition of gelatinase MMP-2 by hydroxamic acids; assay type: biochemical; conditions: for Ki: Ki = IC50/(1 + [S]/Km), read-out: Apparent Ki gelatinase MMP-2
T1 sequence (P08253 110-660): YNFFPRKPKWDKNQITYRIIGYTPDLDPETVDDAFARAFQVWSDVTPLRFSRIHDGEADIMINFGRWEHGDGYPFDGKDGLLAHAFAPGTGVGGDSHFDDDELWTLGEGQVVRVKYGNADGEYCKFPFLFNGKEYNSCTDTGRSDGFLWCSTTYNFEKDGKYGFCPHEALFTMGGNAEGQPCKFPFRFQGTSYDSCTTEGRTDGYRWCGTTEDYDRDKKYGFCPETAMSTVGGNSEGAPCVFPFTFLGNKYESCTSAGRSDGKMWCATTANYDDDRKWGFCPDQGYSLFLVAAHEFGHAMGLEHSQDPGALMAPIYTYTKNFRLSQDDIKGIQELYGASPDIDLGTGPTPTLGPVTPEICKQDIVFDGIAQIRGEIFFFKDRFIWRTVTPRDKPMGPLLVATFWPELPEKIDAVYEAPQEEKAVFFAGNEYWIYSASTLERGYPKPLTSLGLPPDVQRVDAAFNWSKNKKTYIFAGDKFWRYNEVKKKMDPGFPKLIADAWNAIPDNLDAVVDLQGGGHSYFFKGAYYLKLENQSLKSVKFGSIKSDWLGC

[2] = system: ADAMTS-4/ADAMTS-5 (aggrecanase); experiment: Inhibition of aggrecan cleavage at Glu1480-Gly1481 by recombinant ADAMTS-4/ADAMTS-5 (Western blot, densitometry); assay type: biochemical, Human; conditions: aggrecan 500 nM, enzyme 5 nM, 2 hours, 37° C.; Ki = IC50/(1 + [S]/Km); read-out: Apparent Ki aggrecanase ADAM-TS4/5
Description: A series of newly synthesized hydroxamic acids (FIG. 1) were tested for their ability to inhibit recombinant ADAMTS-4/ADAM-TS5 as well a several matrix metalloproteinases (MMPs). In this study aggrecan, at a concentration of 500 nM, was incubated for 2 hours at 37° C. with 5 nM of either ADAMTS-4/ADAM-TS5 in the presence or absence of one of the hydroxamic acids at a concentration range from 0.1 to 1000 nM. Subsequently, the fractions were analysed for cleavage of aggrecan at the Glu^1480-^1481Gly site by Western Blot analysis, using a specific antibody recognizing the new C-terminus GELE^1480. Inhibition of cleavage was determined by scanning densitometry and the Ki values were determined (Table 1).
Digestions were carried out in 100 μl of 50 mM Tris/HCl buffer, pH 7.5, containing 100 mM NaCl and 10 mM CaCl2. Human recombinant ADAMTS-4/ADAMTS-5 were prepared as described (1, 2). Purified bovine aggrecan (12) (500 nM) was incubated with 5 nM ADAMTS-4/ADAMTS-5 at 37° C. for 2 hours, in the absence or presence of each of the hydroxamates described above, at concentrations ranging from […]. Following the incubation, cleavage of aggrecan at the Glu^1480-^1481Gly bond was monitored by Western Blot analysis, using the neoepitope antibody that recognizes the new C-terminus GELE^1480, as previously described (12).

Collagenase MMP-1 = target: T2, Collagenase MMP-1 (Homo sapiens, UniProt P03956); experiment: Inhibition of collagenase MMP-1 by hydroxamic acids; assay type: biochemical; conditions: for Ki: Ki = IC50/(1 + [S]/Km), read-out: Apparent Ki Collagenase MMP-1
T2 sequence (P03956 100-469): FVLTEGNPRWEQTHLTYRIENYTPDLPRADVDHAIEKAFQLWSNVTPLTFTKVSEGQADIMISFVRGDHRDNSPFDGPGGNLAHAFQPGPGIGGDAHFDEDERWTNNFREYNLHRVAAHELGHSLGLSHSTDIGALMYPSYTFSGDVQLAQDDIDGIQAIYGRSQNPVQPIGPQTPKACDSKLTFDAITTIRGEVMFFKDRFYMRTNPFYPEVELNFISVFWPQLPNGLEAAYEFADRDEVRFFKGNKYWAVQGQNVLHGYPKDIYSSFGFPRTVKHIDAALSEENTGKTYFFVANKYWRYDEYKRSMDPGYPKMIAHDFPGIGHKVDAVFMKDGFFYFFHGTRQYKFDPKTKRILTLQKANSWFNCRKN

stromelysin MMP-3 = stromelysin MMP-3 (Homo sapiens, UniProt P08254); experiment: Inhibition of stromelysin MMP-3 by hydroxamic acids; assay type: biochemical; conditions: for Ki: Ki = IC50/(1 + [S]/Km), read-out: Apparent Ki stromelysin MMP-3
Chain of stromelysin MMP-3 (P08254 100-477): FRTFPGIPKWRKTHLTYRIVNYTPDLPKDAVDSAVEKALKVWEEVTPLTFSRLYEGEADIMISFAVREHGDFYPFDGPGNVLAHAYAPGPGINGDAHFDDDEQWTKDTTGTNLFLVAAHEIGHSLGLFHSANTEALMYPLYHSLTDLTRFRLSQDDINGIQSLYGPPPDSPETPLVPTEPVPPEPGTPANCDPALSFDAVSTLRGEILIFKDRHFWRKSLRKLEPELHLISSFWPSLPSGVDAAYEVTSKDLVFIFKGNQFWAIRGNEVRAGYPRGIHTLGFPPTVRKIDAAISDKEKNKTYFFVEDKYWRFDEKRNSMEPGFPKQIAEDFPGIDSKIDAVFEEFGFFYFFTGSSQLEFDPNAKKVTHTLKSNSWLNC

[3] = system: Human OA cartilage explants; experiment: Aggrecanase-generated aggrecan fragment release from human osteoarthritic cartilage explants; assay type: cell-based; conditions: 0.1 to 10 μM, 48 hours
Description: as §1
Articular cartilage was dissected from the hips of patients with osteoarthritis at the time of joint replacement. Cartilage was allowed to equilibrate for 3 days in DMEM supplemented with penicillin (100 U/ml) and streptomycin (100 μg/ml). […] At the end of the culture period, the media were analyzed for aggrecan fragments generated by cleavage of aggrecan by aggrecanase, using a neoepitope that recognizes the new N-terminus […] (14).

aggrecanase-1 (ADAMTS4) = experiment: Protection of native aggrecan from cleavage by full length aggrecanase-1 (Western blot, MAB2035); assay type: biochemical; conditions: peptide 100 μM, ADAMTS4 5 nM, aggrecan 500 nM, 5 hours, 37° C.
Description: An aggrecan binding peptide sequence derived from thrombospondin motif of aggrecanase-1 was tested for its ability to protect aggrecan from degradation by aggrecanase. Full length aggrecanase-1 (ADAMTS4), 5 nM, was incubated with native aggrecan, 500 nM, for 5 hours at 37° C. in the presence of the thrombospondin peptide GGWGPWGPWGDCSRTCGGG, 100 μM (Seq. No. 14). Aggrecan cleavage products were measured by Western blot analysis using the monoclonal antibody MAB2035.

[4] = compared with Ki against aggrecanase

Ki (gelatinase MMP-2) [nM] | Ki (Collagenase MMP-1) [nM] | Ki (stromelysin MMP-3) [nM] | Potency against MMP-2 relative to aggrecanase (gelatinase MMP-2; [4]) | Potency against MMP-1 relative to aggrecanase (Collagenase MMP-1; [4]) | Potency against MMP-3 relative to aggrecanase (stromelysin MMP-3; [4]) | Molecule | IC50 [1] [nM] | Ki [2] [nM] | Protection against IL-1 induced aggrecan degradation ([1]; pig articular cartilage explants) | Release of aggrecanase-generated fragment with N-terminus 374ARGSV [3] | Protection of aggrecan from cleavage by aggrecanase (aggrecanase-1 (ADAMTS4))
> 1000 | 995 | > 1000 | – | – | – | CNC(=O)C(Cc1ccccc1)NC(=O)C(CC(=O)O)CC(C)C (stereo not shown) [JWD-18] | > 100000 | > 10000 | – | – | –
36 | 26 | 125 | twofold less potent | twofold less potent | a log less potency | CNC(=O)[C@@H](NC(=O)[C@@H](CC(=O)NO)CC(C)C)C(C)C [JWD-40] | 2050 | 17 | very effective | blocked the release of this fragment in a concentration-dependent manner | –
59 | 76 | – | – | – | – | CNC(=O)C(C)NC(=O)C(CC(=O)NO)CC(C)C (stereo not shown) [JWD-52] | – | 35 | – | – | –

Continued, molecule first:

Molecule | Ki (gelatinase MMP-2) [nM] | Ki (Collagenase MMP-1) [nM] | Ki (stromelysin MMP-3) [nM] | Potency against MMP-2 relative to aggrecanase (gelatinase MMP-2; [4]) | Potency against MMP-1 relative to aggrecanase (Collagenase MMP-1; [4]) | Potency against MMP-3 relative to aggrecanase (stromelysin MMP-3; [4]) | IC50 [1] [nM] | Ki [2] [nM] | Protection against IL-1 induced aggrecan degradation ([1]; pig articular cartilage explants) | Release of aggrecanase-generated fragment with N-terminus 374ARGSV [3] | Protection of aggrecan from cleavage by aggrecanase (aggrecanase-1 (ADAMTS4))
CNC(=O)C(Cc1ccc(F)cc1)NC(=O)C(CC(=O)NO)CC(C)C (stereo not shown) [JWC-95] | 2.3 | 5.9 | 65 | – | – | – | 2900 | 98 | – | – | –
CNC(=O)C(CCc1ccccc1)NC(=O)C(CC(=O)NO)CC(C)C (stereo not shown) [JWC-97] | 2.3 | 7.4 | 135 | – | – | – | 1800 | 62 | – | – | –
CNC(=O)C(Cc1ccc(OCc2ccccc2)cc1)NC(=O)C(CC(=O)NO)CC(C)C (stereo not shown) [JWC-100] | < 0.1 | 1 | 0.9 | – | – | – | 6000 | 160 | – | – | –
GGWGPWGPWGDCSRTCGGG | – | – | – | – | – | – | – | – | – | – | protects aggrecan from cleavage by aggrecanase
